Test results reported in patent US20250313546A1, “NUCLEIC ACID BINDERS” (UNIVERSITY OF STRATHCLYDE, priority 2022, published 2025).
pIC50: −log10 of the molar value. Values after ≈ are worked out from the molar mass of the structure shown. Like-named read-outs stand apart in the source and are kept apart here.

Columns and labels:
C. guilliiermondii = test: Expanded set of yeasts, MIC broth microdilution (CLSI); type: cell-based; settings: MIC at 50% inhibition
Scedosporium spp. = test: Expanded set of filamentous fungi, MIC broth microdilution (CLSI); type: cell-based
[1] = system: Escherichia coli (ATCC 25922); test: Antibacterial MIC, broth microdilution (CLSI); type: cell-based; settings: Escherichia coli, ATCC25922; read-out: MIC80 E. coli
C. albicans = test: Expanded set of yeasts, MIC broth microdilution (CLSI); type: cell-based; settings: MIC at 50% inhibition; for MIC50: Candida albicans
C. glabrata = test: as above; type: cell-based; settings: Nakaseomyces glabratus, MIC at 50% inhibition
C. auris = test: as above; type: cell-based; settings: MIC at 50% inhibition
C. krusei = test: as above; type: cell-based; settings: Pichia kudriavzevii, ATCC6258; isolate ATCC 6258; MIC at 50% inhibition
Paecilomyces variotii = test: Expanded set of filamentous fungi, MIC broth microdilution (CLSI); type: cell-based; settings: isolate MYA-3630, MIC at 50% inhibition
Fusarium oxysporum = test: as above; type: cell-based; settings: MIC at 50% inhibition
Rhizopus arrhizus = test: as above; type: cell-based
Blastomyces dermatitidis = test: as above; type: cell-based
[2] = system: Enterococcus faecalis (ATCC 51299); test: Antibacterial MIC, broth microdilution (CLSI); type: cell-based; settings: for MIC80: Enterococcus faecalis, ATCC51299, read-out: MIC80 E. faecalis
[3] = system: Staphylococcus aureus (ATCC 43300); test: Antibacterial MIC, broth microdilution (CLSI); type: cell-based; settings: for MIC80: Staphylococcus aureus, ATCC43300, read-out: MIC80 S. aureus
[4] = system: PolyAU double stranded RNA; test: Fluorescence intercalator displacement (FID) assay, SYBR-safe probe; settings: 20 μM compound, 30° C., lower % = stronger binding
How it was run: (§1)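 Probe displacement was measured at 30 °C in 1 mM phosphate pH 7.4 containing SybrSafe (12500-fold dilution), 3.76 ng/mL nucleic acid (salmon dsDNA or polyAU dsRNA) and 20 μM compound. Fluorescence loss is normalised between probe-only and probe-plus-nucleic-acid controls.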

[5] = system: Genomic double stranded DNA (salmon); test: as above; settings: 20 μM compound, 30° C., lower % = stronger binding
How it was run: as §1

Fusarium solani = test: Expanded set of filamentous fungi, MIC broth microdilution (CLSI); type: cell-based; settings: MIC at 50% inhibition
Aspergillus fumigatus = test: as above; type: cell-based
Aspergillus flavus = test: as above; type: cell-based; settings: MIC at 50% inhibition; for MIC50: Aspergillus flavus
Candida parapsilosis = test: Expanded set of yeasts, MIC broth microdilution (CLSI); type: cell-based; settings: MIC at 50% inhibition; for MIC50: Lodderomyces parapsilosis
Lomentospora prolificans = test: Expanded set of filamentous fungi, MIC broth microdilution (CLSI); type: cell-based; settings: isolate S2, MIC at 50% inhibition
[6] = system: A. fumigatus A1160 (MFIG001); settings: Aspergillus fumigatus, read-out: MIC99 A. fumigatus A1160
[7] = system: Candida glabrata (ACPF3309); settings: Nakaseomyces glabratus, read-out: MIC99 Candida glabrata
Candida auris (H.17.157) = settings: Candidozyma auris, read-out: MIC99 Candida auris
[8] = system: Fusarium oxysporum (F7098); settings: read-out: MIC99 Fusarium oxysporum
Experimental: (§2) The Minimum Inhibitory Concentration (MIC, at 99% inhibition) of the compounds was determined using the broth microdilution method as recommended by EUCAST (EUCAST Definitive Document E.DEF 9.3.2, Method for the determination of broth dilution minimum inhibitory concentrations of antifungal agents for conidia forming moulds and EUCAST Definitive Document E.DEF 7.3.2 Method for the determination of broth dilution minimum inhibitory concentrations of antifungal agents for yeasts).

T. equiperdum = test: Resazurin-based (Alamar blue) drug sensitivity assay; settings: Trypanosoma equiperdum, read-out: IC50 T. equiperdum
Experimental: A detailed description of the procedure for evaluating activity against trypanosomes, using an Alamar Blue (resazurin) assay, is described below.
The bloodstream form (BSF) T. b. brucei s427 (see De Koning, H. P. et al., Mol. Biochem. Parasitol. 2000, 106, 181-185), T. evansi AntTat 3/3 (see Dean, S. et al., Proc. Natl. Acad. Sci. USA, 2013, 110, 14741-14746), and T. equiperdum (see Stewart, M. L. et al., Eukaryot. Cell, 2010, 9, 336-343) were cultured in HMI-9 medium (Life Technologies, Paisley, United Kingdom) supplemented with 10% heat inactivated Foetal Bovine Serum (FBS (PAA Laboratories Linz, Austria)), 14 μL/L β-mercaptoethanol (BDH, Dorset, UK), and 3.0 g/L NaHCO3 (Sigma-Aldrich) and adjusted to pH 7.4. These cell lines were maintained at 37° C. in a humidified, 5% CO2 environment.
A resazurin-based (Alamar blue) drug sensitivity assay was used to assess and compare the activity of standard trypanocides in the different cell lines investigated (see Gould, M. K. et al., Anal. Biochem., 2008, 382, 87-93). Briefly, 23 doubling dilutions of the test compound of the invention, starting at 100 μM, and a compound-free control were prepared in 100 μL medium in a 96-well white plate (Greiner Bio-one, Frickenhausen, Germany). The cells were adjusted to 2×10^4 cells/mL for T. b. brucei and T. equiperdum; 4×10^4 cells/mL for T. evansi; and 5×10^5 cells/mL for T. congolense in the appropriate medium. 100 μL of the adjusted cells was then added to the wells containing drug dilutions and incubated for 48 h under respective culture condition. Thereafter, 20 μL of 125 mg/mL resazurin sodium dye was added, and the plate was incubated for a further 24 h.

[9] = system: Scedosporium prolificans (F2746); settings: Lomentospora prolificans, read-out: MIC99 Scedosporium prolificans
Experimental: as §2

C. albicans (ATCC 90028) = settings: Candida albicans, ATCC90028, read-out: MIC99 C. albicans
Experimental: as §2

T. evansi AntTat 3/3 = test: Resazurin-based (Alamar blue) drug sensitivity assay; settings: read-out: IC50 T. evansi
[10] = system: Rhizopus arrhizus (NEQAS12.35321); settings: read-out: MIC99 Rhizopus arrhizus
A. flavus (CBS 128.202) = settings: Aspergillus flavus, CBS128, read-out: MIC99 A. flavus
Experimental: as §2

C. neoformans (F10025) = settings: Cryptococcus neoformans, read-out: MIC99 C. neoformans
[11] = SI, IC50 (μM)/MIC80 (μM), HEK293 cytotoxicity, Alkyl Amidines and NH Pyrroles

CNC(=N)CCNC(=O)c1cc(NC(=O)c2cc(NC(=O)c3ccc(/C=C/c4cnc5ccccc5c4)cc3)cn2C)cn1C [Ia27, (E)-N-(3-imino-3-(methylamino)propyl)-1-methyl-4-(1-methyl-4-(4-(2-(quinolin-3-yl)vinyl)benzamido)-1H-pyrrole-2-carboxamido)-1H-pyrrole-2-carboxamide]
MIC50 (C. guilliiermondii; isolate Cgui1): 1 to 8 µg/mL (≈ 1.66 to 13.3 µM) | MIC50 C. guilliiermondii (C. guilliiermondii; isolate Cgui2): ** (** means 1 μg/mL < MIC50 <= 8 μg/mL) | MIC50 C. guilliiermondii (C. guilliiermondii; isolate Cgui3): ** (** means 1 μg/mL < MIC50 <= 8 μg/mL) | MIC50 (Scedosporium spp.; isolate S1, MIC at 50% inhibition): ≤ 1 µg/mL | MIC50 (Scedosporium spp.; isolate S3, MIC at 50% inhibition): ≤ 1 µg/mL | MIC80 [1]: > 100 µM | MIC50 (C. albicans; isolate CA3): 1 to 8 µg/mL (≈ 1.66 to 13.3 µM) | MIC50 (C. albicans; isolate SC5314): 1 to 8 µg/mL (≈ 1.66 to 13.3 µM) | MIC50 C. albicans (C. albicans; isolate CA90028): ** (** means 1 μg/mL < MIC50 <= 8 μg/mL) | MIC50 (C. glabrata; isolate 05-62): ≤ 1 µg/mL | MIC50 (C. glabrata; isolate 05-761): ≤ 1 µg/mL | MIC50 (C. glabrata; isolate CG3): ≤ 1 µg/mL | MIC50 (C. auris; Candidozyma auris, isolate DI17-47): 1 to 8 µg/mL (≈ 1.66 to 13.3 µM) | MIC50 C. auris (C. auris; isolate DI17-46): ** (** means 1 μg/mL < MIC50 <= 8 μg/mL) | MIC50 C. auris (C. auris; isolate DI17-48): ** (** means 1 μg/mL < MIC50 <= 8 μg/mL) | MIC50 (C. krusei): ≤ 1 µg/mL | MIC50 (Paecilomyces variotii): 1 to 8 µg/mL (≈ 1.66 to 13.3 µM) | MIC50 (Fusarium oxysporum; Fusarium oxysporum, isolate F2): ≤ 1 µg/mL | MIC50 Fusarium oxysporum (Fusarium oxysporum; isolate F3): *** (*** means MIC50 <= 1 μg/mL) | MIC50 (Rhizopus arrhizus; isolate 99-880, MIC at 50% inhibition): ≤ 1 µg/mL | MIC50 (Rhizopus arrhizus; isolate 99-892, MIC at 50% inhibition): ≤ 1 µg/mL | MIC50 (Rhizopus arrhizus; isolate RA3, MIC at 50% inhibition): 1 to 8 µg/mL (≈ 1.66 to 13.3 µM) | MIC50 (Blastomyces dermatitidis; isolate BD1, MIC at 50% inhibition): 1 to 8 µg/mL (≈ 1.66 to 13.3 µM) | MIC50 (Blastomyces dermatitidis; isolate BD2, MIC at 50% inhibition): 1 to 8 µg/mL (≈ 1.66 to 13.3 µM) | MIC50 (Blastomyces dermatitidis; isolate BD3, MIC at 50% inhibition): 8 to 32 µg/mL (≈ 13.3 to 53.1 µM) | MIC80 [2]: < 5 µM | MIC80 [3]: < 5 µM | % Normalised Fluorescence with polyAU RNA [4]: 17% | % Normalised Fluorescence with gDNA [5]: 13% | MIC50 (Fusarium solani; Fusarium solani, isolate F4): ≤ 1 µg/mL | MIC50 Fusarium solani (Fusarium solani; isolate DI19-284): *** (*** means MIC50 <= 1 μg/mL) | MIC50 (Aspergillus fumigatus; isolate AF293, MIC at 50% inhibition): ≤ 1 µg/mL | MIC50 (Aspergillus fumigatus; isolate DI15-106, MIC at 50% inhibition): ≤ 1 µg/mL | MIC50 (Aspergillus fumigatus; isolate DI15-116, MIC at 50% inhibition): ≤ 1 µg/mL | MIC50 (Aspergillus fumigatus; isolate DI19-187, MIC at 50% inhibition): ≤ 1 µg/mL | MIC50 (Aspergillus fumigatus; isolate DI19-230, MIC at 50% inhibition): ≤ 1 µg/mL | MIC50 (Aspergillus fumigatus; isolate DI19-231, MIC at 50% inhibition): ≤ 1 µg/mL | MIC50 (Aspergillus fumigatus; isolate DI19-232, MIC at 50% inhibition): ≤ 1 µg/mL | MIC50 (Aspergillus fumigatus; isolate DI19-233, MIC at 50% inhibition): ≤ 1 µg/mL | MIC50 (Aspergillus fumigatus; isolate DI19-234, MIC at 50% inhibition): ≤ 1 µg/mL | MIC50 (Aspergillus fumigatus; isolate DI19-236, MIC at 50% inhibition): ≤ 1 µg/mL | MIC50 (Aspergillus fumigatus; isolate DI19-237, MIC at 50% inhibition): ≤ 1 µg/mL | MIC50 (Aspergillus fumigatus; isolate DI20-95, MIC at 50% inhibition): ≤ 1 µg/mL | MIC50 (Aspergillus fumigatus; isolate DI20-103, MIC at 50% inhibition): ≤ 1 µg/mL | MIC50 (Aspergillus flavus; ATCC204304, isolate ATCC 204304): ≤ 1 µg/mL | MIC50 (Aspergillus flavus; isolate Aflav2): ≤ 1 µg/mL | MIC50 Aspergillus flavus (Aspergillus flavus; isolate Aflav3): *** (*** means MIC50 <= 1 μg/mL) | MIC50 (Candida parapsilosis; ATCC22019, isolate ATCC 22019, read-out: MIC50 Candida parapsilosis): 1 to 8 µg/mL (≈ 1.66 to 13.3 µM) | MIC50 (Candida parapsilosis; isolate CP1, read-out: MIC50 C. parapsilosis): 1 to 8 µg/mL (≈ 1.66 to 13.3 µM) | MIC50 C. parapsilosis (Candida parapsilosis; isolate CP2): ** (** means 1 μg/mL < MIC50 <= 8 μg/mL) | MIC50 C. parapsilosis (Candida parapsilosis; isolate CP3): ** (** means 1 μg/mL < MIC50 <= 8 μg/mL) | MIC50 (Lomentospora prolificans): ≤ 1 µg/mL

Cn1cc(NC(=O)c2cc(NC(=O)c3ccc(/C=C/c4ccc5nonc5c4)cc3)c[nH]2)cc1C(=O)NCCC(=N)N [IIIa1, (E)-N-(3-amino-3-iminopropyl)-4-(4-(4-(2-(benzo[c][1,2,5]oxadiazol-5-yl)vinyl)benzamido)-1H-pyrrole-2-carboxamido)-1-methyl-1H-pyrrole-2-carboxamide]
MIC99 [6]: 5 to 25 µg/mL (≈ 8.84 to 44.2 µM) | MIC80 [1]: > 100 µM | MIC99 [7]: < 5 µg/mL | MIC99 (Candida auris (H.17.157)): > 50 µg/mL | MIC99 [8]: 5 to 25 µg/mL (≈ 8.84 to 44.2 µM) | pIC50 (T. equiperdum): 7.00 to 8.00 | MIC99 [9]: 5 to 25 µg/mL (≈ 8.84 to 44.2 µM) | MIC99 (C. albicans (ATCC 90028)): 25 to 50 µg/mL (≈ 44.2 to 88.4 µM) | MIC80 [2]: 5 to 25 µM (≈ 2.83 to 14.1 µg/mL) | E. faecalis Selectivity Indices, Group [2, 11]: B (Group B: 3 < SI <= 5) | pIC50 (T. evansi AntTat 3/3): 7.00 to 8.00 | S. aureus Selectivity Indices, Group [3, 11]: C (Group C: 5 < SI <= 10) | MIC80 [3]: < 5 µM | % Normalised Fluorescence with polyAU RNA [4]: 18% | % Normalised Fluorescence with gDNA [5]: 17% | MIC99 [10]: 5 to 25 µg/mL (≈ 8.84 to 44.2 µM) | MIC99 (A. flavus (CBS 128.202)): 5 to 25 µg/mL (≈ 8.84 to 44.2 µM) | MIC99 (C. neoformans (F10025)): < 5 µg/mL

CN(C)c1ccc(/C=C/c2ccc(C(=O)Nc3cc(C(=O)Nc4c[nH]c(C(=O)NCCN5CCOCC5)c4)n(C)c3)cn2)cc1 [IIIb3, (E)-6-(4-(dimethylamino)styryl)-N-(1-methyl-5-((5-((2-morpholinoethyl)carbamoyl)-1H-pyrrol-3-yl)carbamoyl)-1H-pyrrol-3-yl)nicotinamide]
MIC99 [6]: 25 to 50 µg/mL (≈ 40.9 to 81.9 µM) | MIC80 [1]: > 100 µM | MIC99 [7]: > 50 µg/mL | MIC99 (Candida auris (H.17.157)): > 50 µg/mL | MIC99 [8]: > 50 µg/mL | MIC99 [9]: > 50 µg/mL | MIC99 (C. albicans (ATCC 90028)): > 50 µg/mL | MIC80 [2]: > 100 µM | MIC80 [3]: < 5 µM | % Normalised Fluorescence with polyAU RNA [4]: 39% | % Normalised Fluorescence with gDNA [5]: 31% | MIC99 [10]: > 50 µg/mL | MIC99 (A. flavus (CBS 128.202)): > 50 µg/mL | MIC99 (C. neoformans (F10025)): > 50 µg/mL
